Assay results published in patent US20230322747A1, “OXADIAZOLE HDAC6 INHIBITORS AND USES THEREOF” (Eikonizo Therapeutics, Inc., priority 2022, published 2023).
pIC50: −log10 of the molar value.

Experiments:
Human HDAC8 = Human HDAC8 (Homo sapiens (Human), UniProt Q9BY41); test: Caliper endpoint assay for HDAC8 enzymatic activity; format: biochemical; conditions: in vitro enzymatic
Human HDAC6 = Human HDAC6 (Homo sapiens (Human), UniProt Q9UBN7); test: HDAC6 enzymatic activity assay (Caliper endpoint or fluorogenic format); format: biochemical; conditions: for pIC50: in vitro enzymatic; for Selectivity (6 v 8) (fold): ratio of HDAC8 IC50/HDAC6 IC50
Chain of Human HDAC6 (Q9UBN7 whole entry): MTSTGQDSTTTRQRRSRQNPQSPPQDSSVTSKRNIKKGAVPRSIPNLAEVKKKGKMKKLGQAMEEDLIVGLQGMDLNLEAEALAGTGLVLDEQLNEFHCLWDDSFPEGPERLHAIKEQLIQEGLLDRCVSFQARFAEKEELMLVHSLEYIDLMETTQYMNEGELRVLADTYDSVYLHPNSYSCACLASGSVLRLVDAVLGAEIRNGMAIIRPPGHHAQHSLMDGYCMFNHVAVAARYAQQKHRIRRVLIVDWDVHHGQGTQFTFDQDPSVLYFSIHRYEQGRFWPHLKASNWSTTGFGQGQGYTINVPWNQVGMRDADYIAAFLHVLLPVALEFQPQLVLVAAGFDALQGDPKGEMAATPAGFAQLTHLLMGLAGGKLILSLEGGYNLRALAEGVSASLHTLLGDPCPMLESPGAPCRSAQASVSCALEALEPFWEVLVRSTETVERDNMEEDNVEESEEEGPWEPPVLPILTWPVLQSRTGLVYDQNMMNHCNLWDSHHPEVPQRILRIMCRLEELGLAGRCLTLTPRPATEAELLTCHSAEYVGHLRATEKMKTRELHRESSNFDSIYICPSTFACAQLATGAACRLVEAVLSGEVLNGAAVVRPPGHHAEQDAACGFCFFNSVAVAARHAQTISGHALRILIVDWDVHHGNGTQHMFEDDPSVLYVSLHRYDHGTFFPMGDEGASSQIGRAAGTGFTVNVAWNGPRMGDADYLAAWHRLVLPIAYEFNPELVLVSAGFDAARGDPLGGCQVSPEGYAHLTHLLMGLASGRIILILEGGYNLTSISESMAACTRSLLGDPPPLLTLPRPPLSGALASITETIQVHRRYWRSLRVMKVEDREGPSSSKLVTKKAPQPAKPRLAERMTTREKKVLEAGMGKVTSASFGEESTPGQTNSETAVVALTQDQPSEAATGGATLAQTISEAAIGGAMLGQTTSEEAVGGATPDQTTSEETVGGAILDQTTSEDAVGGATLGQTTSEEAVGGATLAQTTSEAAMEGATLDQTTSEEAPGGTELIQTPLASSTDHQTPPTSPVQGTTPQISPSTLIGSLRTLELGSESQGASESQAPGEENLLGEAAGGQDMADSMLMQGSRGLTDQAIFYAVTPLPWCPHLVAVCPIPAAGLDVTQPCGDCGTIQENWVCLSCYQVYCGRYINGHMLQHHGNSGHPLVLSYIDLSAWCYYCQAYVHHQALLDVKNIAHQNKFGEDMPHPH

Chain of Human HDAC8 (Q9BY41 whole entry): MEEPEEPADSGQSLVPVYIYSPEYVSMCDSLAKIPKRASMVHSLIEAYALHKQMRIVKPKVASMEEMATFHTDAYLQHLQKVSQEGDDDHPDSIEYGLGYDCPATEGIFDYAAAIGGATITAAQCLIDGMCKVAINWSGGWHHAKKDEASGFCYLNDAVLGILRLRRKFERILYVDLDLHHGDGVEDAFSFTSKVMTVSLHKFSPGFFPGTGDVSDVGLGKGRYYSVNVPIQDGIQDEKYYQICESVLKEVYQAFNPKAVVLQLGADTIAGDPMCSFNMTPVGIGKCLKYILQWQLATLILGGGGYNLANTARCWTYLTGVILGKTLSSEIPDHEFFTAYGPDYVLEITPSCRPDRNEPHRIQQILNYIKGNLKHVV

| Structure (SMILES) | pIC50 (Human HDAC8) | pIC50 (Human HDAC6) | Selectivity (6 v 8) (fold) (Human HDAC6) |
| --- | --- | --- | --- |
| FC(F)c1nnc(-c2ccc(COc3ccon3)nc2)o1 [Compound 64] | < 4.00 | 6.00 to 7.00 | V (V: >1000) |
| Cn1cc(OCc2ccc(-c3nnc(C(F)F)o3)cn2)cn1 [Compound 65] | < 4.00 | 6.00 to 7.00 | V (V: >1000) |
| Cn1nccc1OCc1ccc(-c2nnc(C(F)F)o2)cn1 [Compound 67] | < 4.00 | 6.00 to 7.00 | V (V: >1000) |
| FC(F)c1nnc(-c2ccc(COc3cnccn3)nc2)o1 [Compound 68] | < 4.00 | 6.00 to 7.00 | V (V: >1000) |
| CCn1ccc(OCc2ccc(-c3nnc(C(F)F)o3)cn2)n1 [Compound 69] | 4.00 to 5.00 | 6.00 to 7.00 | IV (IV: >100-1000) |
| Cc1ccc(OCc2ccc(-c3nnc(C(F)F)o3)cn2)cn1 [Compound 70] | < 4.00 | 6.00 to 7.00 | V (V: >1000) |
| Cc1ccnc(OCc2ccc(-c3nnc(C(F)F)o3)cn2)c1 [Compound 71] | < 4.00 | 7.00 to 9.00 | V (V: >1000) |
| Cc1cccc(OCc2ccc(-c3nnc(C(F)F)o3)cn2)n1 [Compound 72] | < 4.00 | 6.00 to 7.00 | V (V: >1000) |
| Cc1cccnc1OCc1ccc(-c2nnc(C(F)F)o2)cn1 [Compound 73] | < 4.00 | 6.00 to 7.00 | V (V: >1000) |
| Cc1cc(OCc2ccc(-c3nnc(C(F)F)o3)cn2)ccn1 [Compound 74] | < 4.00 | 7.00 to 9.00 | V (V: >1000) |
| Cc1cnccc1OCc1ccc(-c2nnc(C(F)F)o2)cn1 [Compound 75] | 4.00 to 5.00 | 7.00 to 9.00 | IV (IV: >100-1000) |
| Fc1ccc(OCc2ccc(-c3nnc(C(F)F)o3)cn2)nc1 [Compound 76] | < 4.00 | 7.00 to 9.00 | V (V: >1000) |
| Fc1cccnc1OCc1ccc(-c2nnc(C(F)F)o2)cn1 [Compound 77, 2-(Difluoromethyl)-5-[6-[(3-fluoro-2-pyridyl)oxymethyl]-3-pyridyl]-1,3,4-oxadiazole] | < 4.00 | 7.00 to 9.00 | V (V: >1000) |
| CC(C)n1ccc(OCc2ccc(-c3nnc(C(F)F)o3)cn2)n1 [Compound 79] | < 4.00 | 7.00 to 9.00 | V (V: >1000) |
| Cc1nc(Cl)cc(OCc2ccc(-c3nnc(C(F)F)o3)cn2)n1 [Compound 80] | 5.00 to 6.00 | 7.00 to 9.00 | III (III: >10-100) |
| FC(F)c1nnc(-c2ccc(COc3cccn4ccnc34)nc2)o1 [Compound 82] | < 4.00 | 7.00 to 9.00 | V (V: >1000) |
| FC(F)c1nnc(-c2ccc(COc3ccc(C4CC4)nn3)nc2)o1 [Compound 83] | 4.00 to 5.00 | 6.00 to 7.00 | IV (IV: >100-1000) |
| FC(F)c1nnc(-c2ccc(COc3ccc(C4CC4)cn3)nc2)o1 [Compound 85, 2-[6-[(5-cyclopropyl-2-pyridyl)oxymethyl]-3-pyridyl]-5-(difluoromethyl)-1,3,4-oxadiazole] | < 4.00 | 6.00 to 7.00 | V (V: >1000) |
| FC(F)c1nnc(-c2ccc(COc3cncc4ccccc34)nc2)o1 [Compound 88] | 4.00 to 5.00 | 7.00 to 9.00 | V (V: >1000) |

| Structure (SMILES) | pIC50 (Human HDAC8) | pIC50 (Human HDAC6) | Selectivity (6 v 8) (fold) (Human HDAC6) |
| --- | --- | --- | --- |
| FC(F)c1nnc(-c2ccc(COc3ccc(C(F)(F)F)nc3)nc2)o1 [Compound 91] | < 4.00 | 7.00 to 9.00 | V (V: >1000) |
| FC(F)c1nnc(-c2ccc(COc3cccc(C(F)(F)F)n3)nc2)o1 [Compound 92] | < 4.00 | 7.00 to 9.00 | V (V: >1000) |
| FC(F)c1nnc(-c2ccc(COc3cncc(C(F)(F)F)c3)nc2)o1 [Compound 93] | < 4.00 | 7.00 to 9.00 | V (V: >1000) |
| Cc1nc(OCc2ccc(-c3nnc(C(F)F)o3)cn2)c2ccccc2n1 [Compound 97] | < 4.00 | 7.00 to 9.00 | V (V: >1000) |
| FC(F)c1nnc(-c2ccc(COc3ccnc(N4CCOCC4)n3)nc2)o1 [Compound 99] | < 4.00 | 6.00 to 7.00 | V (V: >1000) |
| FC(F)c1nnc(-c2ccc(COc3cncnc3)nc2)o1 [Compound 102] | < 4.00 | 7.00 to 9.00 | V (V: >1000) |
| Fc1cnc(OCc2ccc(-c3nnc(C(F)F)o3)cn2)nc1 [Compound 106] | < 4.00 | 6.00 to 7.00 | V (V: >1000) |
| N#Cc1ccc(OCc2ccc(-c3nnc(C(F)F)o3)cn2)cc1 [Compound 118, 4-((5-(5-(difluoromethyl)-1,3,4-oxadiazol-2-yl)pyridin-2-yl)methoxy)benzonitrile] | 4.00 to 5.00 | 7.00 to 9.00 | V (V: >1000) |
| NC(=O)c1ccc(OCc2ccc(-c3nnc(C(F)F)o3)cn2)cc1 [Compound 122, 4-((5-(5-(difluoromethyl)-1,3,4-oxadiazol-2-yl)pyridin-2-yl)methoxy)benzamide] | < 4.00 | < 4.00 | V (V: >1000) |
| FC(F)c1nnc(-c2ccc(COc3ccn4cnnc4c3)nc2)o1 [Compound 184, 2-(6-(([1,2,4]triazolo[4,3-a]pyridin-7-yloxy)methyl)pyridin-3-yl)-5-(difluoromethyl)-1,3,4-oxadiazole] | < 4.00 | 6.00 to 7.00 | IV (IV: >100-1000) |
| CN1CCc2c(OCc3ccc(-c4nnc(C(F)F)o4)cn3)noc2C1 [Compound 191, 3-((5-(5-(Difluoromethyl)-1,3,4-oxadiazol-2-yl)pyridin-2-yl)methoxy)-6-methyl-4,5,6,7-tetrahydroisoxazolo[5,4-c]pyridine] | < 4.00 | 6.00 to 7.00 | IV (IV: >100-1000) |
| CCn1cnc2ccc(OCc3ccc(-c4nnc(C(F)F)o4)cn3)cc21 [Compound 202] | < 4.00 | 6.00 to 7.00 | IV (IV: >100-1000) |
| CC(C)n1cnc2ccc(OCc3ccc(-c4nnc(C(F)F)o4)cn3)cc21 [Compound 203] | < 4.00 | 5.00 to 6.00 | III (III: >10-100) |
| Cn1nc(-c2nc3ccc(OCc4ccc(-c5nnc(C(F)F)o5)cn4)cc3o2)ccc1=O [Compound 204] | < 4.00 | 7.00 to 9.00 | V (V: >1000) |
| FC(F)c1nnc(-c2ccc(COc3ccc4c(c3)ncn4CCN3CCCC3)nc2)o1 [Compound 209] | < 4.00 | 5.00 to 6.00 | III (III: >10-100) |
| CN(C)CCn1cnc2cc(OCc3ccc(-c4nnc(C(F)F)o4)cn3)ccc21 [Compound 210] | < 4.00 | 5.00 to 6.00 | III (III: >10-100) |
| CCn1cnc2cc(OCc3ccc(-c4nnc(C(F)F)o4)cn3)ccc21 [Compound 211] | < 4.00 | 6.00 to 7.00 | IV (IV: >100-1000) |
| CC(C)n1cnc2cc(OCc3ccc(-c4nnc(C(F)F)o4)cn3)ccc21 [Compound 212] | < 4.00 | 6.00 to 7.00 | IV (IV: >100-1000) |
